Where “and” joins values, the source holds several entries; their conditions need not be identical. Equal entries are not always repeated.
Columns and labels:
[1] = test system: CD3+, CD4+ and CD8+ recipient T cells; assay: CFSE-MLR proliferation assay with recipient PBMC; type: cell-based, human; settings: patient UW19, response to third party antigen, 12 months
Description: To examine the proliferative response of host T cells to donor antigen, purified responder PBMC's were labeled with CFSE. In an effort to keep the APC source constant, only PBMC's from living donors and third parties were used.
For simplicity, the loss of CFSE intensity was designated “percent proliferation” or “percent CFSE low” (e.g., even though, generally, this is a measure of the actual number of daughter cells initially involved in the response).

[2] = test system: kidney allograft; assay: Protocol kidney biopsy after transplantation; type: in vivo, human; settings: for M12 biopsy: kidney biopsy 12 months after transplantation, per patient
Description: (§1) Patients and Protocol Therapy. Primary renal allograft patients received a non-HLA-identical kidney from either cadaveric or living donors. Subjects were 18-60 years of age and had between 1-6 MHC antigen mismatches with the kidney allograft. Kidney transplant recipients were given CAMPATH-1H (Alemtuzumab, ILEX Oncology, Inc.) at day −1 and day 0 of transplant (40 mg total dose), followed by long-term treatment with rapamycin at levels averaging 9 ng/ml. […] Another […] patients were enrolled in the control arm. The latter group received anti-CD25 (Basiliximab, Novartis, East Hanover, N.J.) induction therapy, along with conventional long-term immunosuppressants (CsA, steroids, and MMF). All patients gave written informed consent to participate in the study. The protocol was given approval by the Institutional Review Board at the University of Wisconsin-Madison.
Among the 15 CAMPATH-treated recipients, 10 used a single drug (9 with Sirolimus and 1 with Tacrolimus) for their maintenance immunosuppressive therapy. […] In the control group, all 8 patients were treated with a combination of CsA, MMF and prednisone for their immunosuppressive maintenance.

[3] = test system: recipient T cells (alloreactivity to donor antigen); assay: IFN-γ kinetics assay in the 5-day CFSE-MLR of renal allograft patients; type: cell-based, human; parameters: key to IFN-γ assay: HYPO: hyporesponsive; EQL: equal response to donor and third-party antigen; HYPR: hyperresponsive to donor Ag; UN: no response to donor Ag; settings: for IFN-γ assay: per patient, month 12, response to donor versus third-party antigen
Description: (§2) CFSE-MLR Assay. Blood was collected at 12 months post-transplant, and PBMC's purified by Ficoll gradient separation. Recipient PBMC's were labeled with 5.0 μM CFSE for 10 minutes at 37° C., upon which 1 ml of cold FCS was added to stop further staining. Cells were then washed once in complete media, and used as responder cells in an MLR in which both proliferation and kinetics of cytokine expression were measured in response to irradiated donor, third party, or autologous stimulator PBMC's. The number of class I and class II MHC mismatches between host/donor and host/third party were kept as consistent as possible with the available third parties from which to choose. A total of 2×10^5 responder and 2×10^5 stimulator cells/well were added to a 96-well round-bottom plate, in a total of 200 μl/well complete RPMI with 15% FCS. Cultures were set up in quintuplet wells such that the supernatants could be collected every 24 hours during the 5-day MLR. On day 5, T cell proliferation was measured by flow cytometry using PE-conjugated anti-CD3, CD4, and CD8 antibodies. Live cells were gated out by PI, and subsequent PE-positive cells in the lymphocyte gate were analyzed for their loss of CFSE intensity. On average, 4000 live lymphocytes were acquired for analysis using CellQuest software and a FACSCAN flow cytometer. Proliferation was analyzed using FlowJo software (Tree Star, Inc.).
Cytokine Kinetics Test. Cytokine expression levels in the MLR supernatants were measured using a multi-cytokine fluorescent bead detection system (BeadLyte, Upstate, Inc.). Fifty μl of Day 1-5 supernatants were utilized to analyze the cytokines: IL-1β, IL-2, IL-4, IL-6, IL-8, IL-10, IL-12, GM-CSF, TNF-α, and IFN-γ.
Additional information was obtained from the 5-day CFSE-MLR by collecting supernatants at 24-hour intervals and analyzing them for the expression of IFN-γ. The kinetic patterning gave a comprehensive picture of alloreactivity which could be categorized into 4 distinct groups: 1) patients who responded equally well to donor and third party antigen, 2) those who were hypo-responsive to donor, 3) those who were hyper-responsive to donor, and 4) those who were completely unresponsive to donor as opposed to third party antigen (See FIG. 4). […] Statistically, there was no bias in the hypo- (P=0.51) or hyper-responsive (P=0.73) groups using the 1-tailed Fisher's exact test. […] Therefore, the donor unresponsiveness of these 4 patients cannot simply be attributed to low T cell counts. Taken together, the present invention provides that CAMPATH-rapamycin immunotherapy promotes T cell unresponsiveness in at least a subset of renal allograft recipients.

[4] = test system: recipient T cells (alloreactivity to donor antigen); assay: GM-CSF kinetics assay in the 5-day CFSE-MLR of renal allograft patients; type: cell-based, human; parameters: key: HYPO: hyporesponsive; EQL: equal response to donor and third-party antigen; HYPR: hyperresponsive to donor Ag; UN: no response to donor Ag; settings: per patient, month 12, response to donor versus third-party antigen
Description: as §2, with “Cultures were set up in quintuplet wells such that the supernatants could be collected every 24 hours during the 5-day MLR.” left out, “On average, 4000 live lymphocytes were acquired for analysis using CellQuest software and a FACSCAN flow cytometer.” left out
Cytokine Kinetics Test. Cytokine expression levels in the MLR supernatants were measured using a multi-cytokine fluorescent bead detection system (BeadLyte, Upstate, Inc.). […]

[5] = test system: peripheral blood T cells (CD3), B cells (CD20), monocytes (CD14), lymphocytes; settings: renal allograft recipients, at the outset; cited from earlier work
[6] = test system: peripheral blood T cells (CD3), B cells (CD20), monocytes (CD14), lymphocytes; assay: Leukocyte repopulation in peripheral blood of renal allograft patients; type: in vivo, human
Description: as §1
In renal allograft recipients treated with CAMPATH-1H, immunodepletion is profound, with a 2-3 log reduction in peripheral lymphocytes at the outset (See, e.g., Brett et al., Immunology 1996, 88,13). […] Although monocytes and B cells recovered to baseline numbers by 3 and 12-months, respectively, T cell levels were slow to repopulate, recovering to approximately 50% baseline by 36 months. CD4+ and CD8+ T cell subsets were at an approximate 2:1 ratio pre-transplant, yet CD8+ T cells recovered at a relatively constant 1:1 ratio with CD4+ cells in CAMPATH-treated patients (See FIG. 6b).

[7] = maintenance Tacrolimus, prednisone
[8] = IFN-γ kinetics, 12 months, n=15 Campath, n=8 Control

Substance: Campath: humanized monoclonal antibody that binds CD52; induction therapy followed by long-term rapamycin
- percent proliferation of CD3+ cells [1]: 6.7%
- percent proliferation of CD4+ cells [1]: 7.1%
- percent proliferation of CD8+ cells [1]: 5.1%
- M12 biopsy [2]: normal histology
- M12 biopsy ([2]; maintenance Sirolimus): Normal
- M12 biopsy ([2]; maintenance Sirolimus, MMF): C4d+, humoral rejection
- M12 biopsy ([2]; maintenance Tacrolimus): Normal
- M12 biopsy ([2]; maintenance Tacrolimus, MMF): Normal
- M12 biopsy [2, 7]: Acute rejection Banff 1A
- M06 biopsy ([2]; kidney biopsy at month 6, M12 biopsy declined): M06 Biopsy Normal Declined M12
- Donor-specific nonresponsiveness (number of patients) [3, 8]: 4
- Equal response (number of patients) [3, 8]: 1
- Hyper-response (number of patients) [3, 8]: 2
- Hypo-response (number of patients) [3, 8]: 8
- Hyper-response (number of patients) ([3]; IFN-γ kinetics, 12 months, n=15 Campath, n=8 Control, listed as CAMPATH): Two
- IFN-γ assay ([3]; maintenance Sirolimus): HYPO (3×) and HYPR (2×) and UN (3×) and EQL
- IFN-γ assay ([3]; maintenance Sirolimus, MMF): HYPO
- IFN-γ assay ([3]; maintenance Tacrolimus): HYPO
- IFN-γ assay ([3]; maintenance Tacrolimus, MMF): HYPO
- IFN-γ assay ([3]; maintenance Tacrolimus, MMF, prednisone): HYPO
- IFN-γ assay [3, 7]: UN
- GM-CSF assay [4]: UN (4×) and HYPO (7×) and HYPR (2×) and EQL^a and EQL
- reduction in peripheral lymphocytes [5]: 2-3 log
- T cell levels recovered ([6]; by 36 months): approximately 50 % baseline
- lymphocyte repopulation (total lymphocyte count versus pre-transplant) ([6]; month 12 post-transplant): below 50 % baseline
- time at which B cells recovered to baseline numbers ([6]; peripheral blood, 29 patients): ≤ 12 months
- time at which monocytes recovered to baseline numbers ([6]; peripheral blood, 29 patients): ≤ 3 months

Source: patent US20070202085A1, “Systems and methods for monitoring immune responses and predicting outcomes in transplant recipients” (Renovar Incorporated, priority 2006, published 2007)
